This note sets out measurements from patent US20210023120A1, “COMPOSITIONS FOR THE DELIVERY OF tRNA AS NANOPARTICLES AND METHODS OF USE THEREWITH” (The Board of Regents of the University of Texas System, priority 2016, published 2021).

The assay relates to p53. Description: Nanoparticle carrier screen in Calu6 cells (p53 Western blot). The format is cell-based. Conditions: nmP53 (R196X), exogenous tRNAArg/OP, 48 hr exposure, FIGS. 6B, 9, 10, 12. As to the method: Calu6 cells were seeded at a density of 500,000 cells per well in a 6-well format and allowed to attach over night. For plasmid DNA, 1 μg was transfected using 3 μl of Lipofectamine 2000 using manufacturer recommend protocols. For tRNA^Arg/RNAiMax, 4 μg was transfected using 3 μl of RNAiMax using manufacturer recommended protocols. Particles were diluted in Opti-MEM (Invitrogen), G418 (50 μg) and PTC124 ([…]) was added directly to the media. Nanoparticles were prepared by mixing all delivery components in ethanol, followed by rapid mixing with tRNA in 10 mM citrate buffer pH 4.3, such that the final mole ratio was 25:1 carrier:siRNA, and the carrier mixture of the formulation consisted of molar ratios 50:38:10:2 carrier: cholesterol: DSPC: PEG-lipid. […] After 48 hr, cells were lysed directly in 2× Sample Buffer ((Tris-HCL 250 mM, pH 6.8, 20% Glycerol, 2.5% SDS, 0.1% Bromophenol blue). Cell lysate proteins were separated by electrophoresis on 10% (wt/vol) polyacrylamide gels using a Tris-glycine buffering system and transferred to polyyinylidene fluoride Immobilon membranes (EMD Millipore). Western blot analysis was performed using primary p53 antibody (Santa Cruz Biotechnology, Inc) actin antibody (EMD Millipore), and secondary antibody IRdye-68ORD (Li-Cor) and imaged/quantified using a Li-Cor Odyssey CLx (Li-Cor).
(In western blotting, separated proteins are transferred to a membrane and probed.)

On to `CN[C@@H]1[C@@H](O)[C@@H](O[C@@H]2[C@@H](O)[C@H](O[C@H]3O[C@H]([C@@H](C)O)[C@@H](O)[C@H](O)[C@H]3N)[C@@H](N)C[C@H]2N)OC[C@]1(C)O` [G418], for which the “p53 expression (Western blot)” value is “only minimal p53 expression”. As to `O=C(O)c1cccc(-c2noc(-c3ccccc3F)n2)c1` [PTC124], the “p53 expression (Western blot)” value is given as “only minimal p53 expression”.
